Data taken from patent publication US5663150A, “Cyclopentane-β-amino acid tripeptides” (Bayer Aktiengesellschaft, priority 1995, dated 1997).

Test system: C. albicans
Assay: systemic mouse candidiasis, in-vivo antimycotic activity
Details: male CFW1 mice infected i.v. with 3×10^5 CFU C. albicans; 50 mg/kg 2 × daily p.o. for 5 days; survival up to 10th day p.i.; 10 animals per group
Method: Testing of in-vivo activity
The test model for antimycotic in-vivo actions used was systemic mouse candidias is:
Male CFW1 mice of weight 20 g were infected in the tail vein by injection of 3×10^5 CFU of C. albicans per animal.
Untreated control animals died completely within one week post-infectionem (p.i.) of a generalized candidiasis with granuloma formation in the kidneys. For activity testing, the preparations, dissolved in a 0.2% strength aqueous glucose-agar solution, were administered orally by stomach tube to the infected animals twice daily.
The daily doses were 2×50 mg/kg of body weight (BW), the treatment period was 5 days.
The survival rates of the treated animals were noted daily up to the 10th day p.i. In the case of the untreated control animals, no animals survived at this point.
For the preparations, 10 animals each were employed per dose and control group.

Question: `C=C1C[C@H](NC(=O)[C@@H](NC(=O)[C@@H](N)C(C)CC)C(C)CC)[C@H](C(=O)O)C1` (relative stereo) [Example 1, (-)-1,2-cis-(2-((S)-Isoleucyl)-(S)-isoleucylamino)-4-methylenecyclopentane-1-carboxylic acid] was tested. Which “Number of surviving animals” value did it give?
Answer: The value was 8/10.
